The assay has as its system HBV rcDNA. Nature of the assay: HepDE19 assay with bDNA quantitation of HBV rcDNA. The class given is cell-based, hepatitis B virus. Put shortly: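 Compounds, top concentration 25 μM in 8-point duplicate series, were applied to Tet-free HepDE19 cultures for 7 days. Branched-DNA quantitation of HBV rcDNA against untreated wells gave EC50 and EC90 by 4-parameter fit. Viability (CC50) came from ATP luminescence on parallel plates incubated 4 days.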

Where [1] appears, read: HepDE19 assay, inhibition of formation of rcDNA, read-out: DE-19bDNA EC50.
[2] abbreviates: Hepatitis B virus, HepDE19, HepDE19 assay, inhibition of formation of relaxed circular DNA (rcDNA), bDNA quantitation, read-out: DE-19bDNA EC50.
Setting [3] is: HepDE19 assay, inhibition of formation of relaxed circular DNA (rcDNA), bDNA quantitation, read-out: DE-19bDNA EC50.
[4] abbreviates: Hepatitis B virus, HepDE19, HepDE19 assay, inhibition of formation of rcDNA, read-out: DE-19bDNA EC50.
Where [5] appears, read: Hepatitis B virus, HepDE19, read-out: DE-19bDNA EC50 (μM), HepDE19 assay, inhibition of formation of rcDNA.

Like-named read-outs stand apart in the source and are kept apart here.

What is called EC50 is the concentration at which the effect is half-maximal.

As for `CC(=O)N1CCC(CN(C(=O)Nc2ccc(F)c(Cl)c2)C(C)c2c[nH]c(=O)c3ccccc23)CC1` (single isomer, unassigned) [Compound 202, 1-((1-Acetylpiperidin-4-yl)methyl)-3-(3-chloro-4-fluorophenyl)-1-(1-(1-oxo-1,2-dihydroisoquinolin-4-yl)ethyl)urea], the EC50 under setting [1] stood at 7.3 µM.

Turning to `CC(c1c[nH]c(=O)c2cc(F)ccc12)N(C)C(=O)Nc1ccc(F)c(Cl)c1` (single isomer, unassigned) [Compound 263, 3-(3-Chloro-4-fluorophenyl)-1-(1-(7-fluoro-1-oxo-1,2-dihydroisoquinolin-4-yl)ethyl)-1-methylurea], the EC50 under setting [1] was 0.78 µM.

Consider `[2H]C([2H])([2H])N(C(=O)Nc1cccc(Cl)c1)C(C)c1c[nH]c(=O)c2c(F)c(F)ccc12` (single isomer, unassigned) [Compound 474, 3-(3-Chlorophenyl)-1-(1-(7,8-difluoro-1-oxo-1,2-dihydroisoquinolin-4-yl)ethyl)-1-(methyl-d3)urea], for which the EC50 (Hepatitis B virus, HepDE19, read-out: DE-19bDNA EC50 (μM), HepDE19 assay, inhibition of formation of relaxed circular DNA (rcDNA), bDNA quantitation) was found to be 0.015 µM.

On to `CC(c1cnc(OCc2ncn(C)n2)c2ccccc12)N(C)C(=O)Nc1ccc(F)c(Cl)c1` (single isomer, unassigned) [Compound 133, 3-(3-Chloro-4-fluorophenyl)-1-methyl-1-(1-(1-((1-methyl-1H-1,2,4-triazol-3-yl)methoxy)isoquinolin-4-yl)ethyl)urea], for which the EC50 under setting [1] amounted to 5.9 µM.

Regarding `CC(c1c[nH]c(=O)c2c(F)c(F)ccc12)N(CCS(N)(=O)=O)C(=O)Nc1ccc(F)c(Cl)c1` (racemic) [Compound 393, 2-(3-(3-chloro-4-fluorophenyl)-1-(1-(7,8-difluoro-1-oxo-1,2-dihydroisoquinolin-4-yl)ethyl)ureido) ethane-1-sulfonamide], the EC50 under setting [2] came to 0.037 µM.

For `CC(c1c[nH]c(=O)c2ccccc12)N(CCC(=O)N(C)C)C(=O)Nc1ccc(F)c(Cl)c1` (single isomer, unassigned) [Compound 105, 3-(3-(3-Chloro-4-fluorophenyl)-1-(1-(1-oxo-1,2-dihydroisoquinolin-4-yl)ethyl)ureido)-N,N-dimethylpropanamide], under setting [1], the EC50 was 3.4 µM.

With `CC(c1c[nH]c(=O)c2ccccc12)N(CCNCC(F)(F)F)C(=O)Nc1ccc(F)c(Cl)c1` (single isomer, unassigned) [Compound 162, 3-(3-Chloro-4-fluorophenyl)-1-(1-(1-oxo-1,2-dihydroisoquinolin-4-yl)ethyl)-1-(2-((2,2,2-trifluoroethyl)amino)ethyl)urea], under setting [1], the EC50 came out at 0.58 µM.

For `Cc1cc(NC(=O)N(C)C(C)c2c[nH]c(=O)c3cc(F)c(F)cc23)ccc1F` (single isomer, unassigned) [Compound 427, 1-(1-(6,7-Difluoro-1-oxo-1,2-dihydroisoquinolin-4-yl)ethyl)-3-(4-fluoro-3-methylphenyl)-1-methylurea], under setting [3], the EC50 was found to be 0.007 µM.

With `CCN(C(=O)Nc1ccc(F)c(Cl)c1)C(C)c1c[nH]c(=O)c2cc(F)c(F)cc12` (single isomer, unassigned) [Compound 407, 3-(3-Chloro-4-fluorophenyl)-1-(1-(6,7-difluoro-1-oxo-1,2-dihydroisoquinolin-4-yl)ethyl)-1-ethylurea], the EC50 under setting [3] is 0.006 µM.

Consider `CC(c1cnc(-n2ccnn2)c2ccccc12)N(C)C(=O)Nc1ccc(F)c(Cl)c1` (single isomer, unassigned) [Compound 425, 1-(1-(1-(1H-1,2,3-Triazol-1-yl)isoquinolin-4-yl)ethyl)-3-(3-chloro-4-fluorophenyl)-1-methylurea], for which the EC50 under setting [3] turned out to be 0.09 µM.

For `CN(Cc1c[nH]c(=O)c2ccccc12)C(=O)Nc1ccc(F)c(Cl)c1` [Compound 1, 3-(3-Chloro-4-fluorophenyl)-1-methyl-1-((1-oxo-1,2-dihydroisoquinolin-4-yl)methyl)urea], the EC50 under setting [4] was determined as 0.47 µM.

Take `Cc1[nH]c(=O)c2ccccc2c1C(C)N(C)C(=O)Nc1ccc(F)c(Cl)c1` (single isomer, unassigned) [Compound 223, 3-(3-Chloro-4-fluorophenyl)-1-methyl-1-(1-(3-methyl-1-oxo-1,2-dihydroisoquinolin-4-yl)ethyl)urea]: the EC50 under setting [1] was 0.027 µM.

Turning to `CC(c1c[nH]c(=O)c2cc(F)c(F)cc12)N(C)C(=O)Nc1ccc(F)cc1` (single isomer, unassigned) [Compound 286, 1-(1-(6,7-Difluoro-1-oxo-1,2-dihydroisoquinolin-4-yl)ethyl)-3-(4-fluorophenyl)-1-methylurea], the EC50 under setting [3] is 0.02 µM.

Consider `CC(c1c[nH]c(=O)c2cc(F)c(F)cc12)N(C)C(=O)Nc1ccccc1F` (single isomer, unassigned) [Compound 420, 1-(1-(6,7-Difluoro-1-oxo-1,2-dihydroisoquinolin-4-yl)ethyl)-3-(2-fluorophenyl)-1-methylurea], for which the EC50 (read-out: DE-19bDNA EC50, HepDE19 assay, inhibition of formation of relaxed circular DNA (rcDNA), bDNA quantitation) was 0.74 µM.

For the molecule `CCN(C(=O)Nc1ccc(F)c(Cl)c1)C(c1c[nH]c(=O)c2ccccc12)C(F)(F)F` (single isomer, unassigned) [Compound 74, 3-(3-chloro-4-fluorophenyl)-1-ethyl-1-(2,2,2-trifluoro-1-(1-oxo-1,2-dihydroisoquinolin-4-yl)ethyl)urea], the EC50 under setting [1] came to 15 µM.

Take `CC(c1cnc(NCCO)c2ccccc12)N(C)C(=O)Nc1ccc(F)c(Cl)c1` (single isomer, unassigned) [Compound 242, 3-(3-Chloro-4-fluorophenyl)-1-(1-(1-((2-hydroxyethyl)amino)isoquinolin-4-yl)ethyl)-1-methylurea]: under setting [1], the concentration giving a half-maximal response (EC50) is 0.17 µM.

Regarding `CC(c1c[nH]c(=O)c2ccccc12)N(CC1COC(C)(C)OC1)C(=O)Nc1ccccc1` (single isomer, unassigned) [Compound 275, 1-((2,2-Dimethyl-1,3-dioxan-5-yl)methyl)-1-(1-(1-oxo-1,2-dihydroisoquinolin-4-yl)ethyl)-3-phenylurea], the EC50 under setting [5] amounted to 0.83 µM.

Turning to `CC(c1cnc(-n2cncn2)c2ccccc12)N(C)C(=O)Nc1ccc(F)c(Cl)c1` (racemic) [Compound 297, 1-(1-(1-(1H-1,2,4-triazol-1-yl)isoquinolin-4-yl)ethyl)-3-(3-chloro-4-fluorophenyl)-1-methylurea], the EC50 under setting [2] turned out to be 0.18 µM.

Take `Cc1cc(NC(=O)N(C)Cc2c[nH]c(=O)c3ccccc23)ccc1F` [Compound 5, 3-(4-Fluoro-3-methylphenyl)-1-methyl-1-((1-oxo-1,2-dihydroisoquinolin-4-yl)methyl)urea]: the EC50 under setting [4] is 0.49 µM.

In the case of `O=C(Nc1ccc(F)c(Cl)c1)N(Cc1c[nH]c(=O)c2ccccc12)CC1CC1` [Compound 53, 3-(3-Chloro-4-fluorophenyl)-1-(cyclopropylmethyl)-1-((1-oxo-1,2-dihydroisoquinolin-4-yl)methyl)urea], the EC50 under setting [5] amounted to 0.16 µM.

In the case of `COCCCN(C(=O)Nc1ccc(F)c(Cl)c1)C(C)c1cnc(OC)c2ccccc12` (single isomer, unassigned) [Compound 81, 3-(3-Chloro-4-fluorophenyl)-1-(1-(1-methoxyisoquinolin-4-yl)ethyl)-1-(3-methoxypropyl)urea], the EC50 under setting [1] worked out at 8.6 µM.

As to `CC(c1c[nH]c(=O)c2ccccc12)N(CCC#N)C(=O)Nc1ccc(F)c(Cl)c1` (racemic) [Compound 103, 3-(3-chloro-4-fluorophenyl)-1-(2-cyanoethyl)-1-(1-(1-oxo-1,2-dihydroisoquinolin-4-yl)ethyl)urea], the concentration giving a half-maximal response (EC50) under setting [4] is 0.27 µM.

Turning to `CC(C)CN(C(=O)Nc1ccc(F)c(Cl)c1)C(C)c1c[nH]c(=O)c2c(F)cccc12` (single isomer, unassigned) [Compound 360, 3-(3-Chloro-4-fluorophenyl)-1-(1-(8-fluoro-1-oxo-1,2-dihydroisoquinolin-4-yl)ethyl)-1-isobutylurea], the EC50 under setting [3] was determined as 0.18 µM.

On to `CC(c1c[nH]c(=O)c2cc(F)c(F)cc12)N(C)C(=O)NCc1ccc(F)c(Cl)c1` (single isomer, unassigned) [Compound 483, 3-(3-Chloro-4-fluorobenzyl)-1-(1-(6,7-difluoro-1-oxo-1,2-dihydroisoquinolin-4-yl)ethyl)-1-methylurea], for which the EC50 under setting [3] came out at 0.27 µM.

With `CC(c1c[nH]c(=O)c2ccccc12)N(Cc1cncs1)C(=O)Nc1ccc(F)c(Cl)c1` (single isomer, unassigned) [Compound 324, 3-(3-Chloro-4-fluorophenyl)-1-(1-(1-oxo-1,2-dihydroisoquinolin-4-yl)ethyl)-1-(thiazol-5-ylmethyl)urea], the concentration for a half-maximal effect (EC50) under setting [3] came to 4.5 µM.

As to `CC(c1cnc(C(=O)N(C)C)c2ccccc12)N(C)C(=O)Nc1ccc(F)c(Cl)c1` (single isomer, unassigned) [Compound 319, 4-(1-(3-(3-Chloro-4-fluorophenyl)-1-methylureido)ethyl)-N,N-dimethylisoquinoline-1-carboxamide], under setting [3], the EC50 came to 0.38 µM.

In the case of `CC(c1c[nH]c(=O)c2c(F)cccc12)N(CCS(N)(=O)=O)C(=O)Nc1ccc(F)c(Cl)c1` (single isomer, unassigned) [Compound 397, 2-(3-(3-Chloro-4-fluorophenyl)-1-(1-(8-fluoro-1-oxo-1,2-dihydroisoquinolin-4-yl)ethyl)ureido) ethane-1-sulfonamide], the concentration giving a half-maximal response (EC50) under setting [3] amounted to 0.1 µM.

Take `Cc1ncc(C(C)N(C)C(=O)Nc2ccc(F)c(Cl)c2)c2ccccc12` (single isomer, unassigned) [Compound 353, 3-(3-Chloro-4-fluorophenyl)-1-methyl-1-(1-(1-methylisoquinolin-4-yl)ethyl)urea]: under setting [3], the half-maximal effective concentration (EC50) was 0.19 µM.

For the origin of these results see patent US20230045421A1 (priority 2018, published 2023).
